Consider 4 molecules from article PMC4613501, “Diversity in the structures and ligand-binding sites of nematode fatty acid and retinol-binding proteins revealed by Na-FAR-1 from Necator americanus” (Biochemical Journal, 2015).

Common to all, as to format: binding
In test [1] the target is T1, Na-FAR-1 (Necator americanus, UniProt W2SRJ3).
T1 construct: gene NECAME_14208; His-tagged; expressed in E. coli BL21 (lambda DE3), selenomethionine form in B834
In words: fluorescence emission spectroscopy. The following applies: delipidated protein.

The target in test [2] is T1, Na-FAR-1. The experiment in a line: NMR titration ([…] HSQC chemical shift perturbation). The following applies: apo protein 0.4 mM, sodium oleate, 20 mM sodium phosphate pH 7.20, 311 K; multiple sites, no fitted constant.
For test [3], the target named is T1, Na-FAR-1. In words: X-ray crystallography. The following applies: selenomethionine-labelled protein; co-purified from E. coli, palmitate chosen as fit to a C16 fatty acid density; internal cavity around Lys96.

T1 sequence (W2SRJ3 entry or part of it): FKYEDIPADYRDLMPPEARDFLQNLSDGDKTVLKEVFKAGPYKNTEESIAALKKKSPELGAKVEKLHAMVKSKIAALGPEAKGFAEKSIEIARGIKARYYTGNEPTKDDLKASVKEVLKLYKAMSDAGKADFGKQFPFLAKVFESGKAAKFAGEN

On to `CN(C)c1cccc2c(S(=O)(=O)NCCCCCCCCCCC(=O)O)cccc12` [DAUDA], for which the fluorescence emission spectroscopy entry in test [1] (PBS, 1 μM DAUDA, 1 μM protein, excitation 345 nm) is “Na-FAR-1 bound the fluorescent FA analogue DAUDA and the naturally fluorescent lipid retinol”. As for `CC1=C(/C=C/C(C)=C/C=C/C(C)=C/CO)C(C)(C)CCC1` [retinol], in test [1] (retinol in ethanol, 1.5 μM protein, excitation 350 nm, isomer not stated), the fluorescence emission spectroscopy entry was “Na-FAR-1 bound the fluorescent FA analogue DAUDA and the naturally fluorescent lipid retinol”. With `CCCCCCCC/C=C\CCCCCCCC(=O)O` [oleic acid], in test [2], the “NMR titration (15N HSQC chemical shift perturbation)” value is “the protein binds up to at least four oleate molecules”.

In the case of `CCCCCCCCCCCCCCCC(=O)O` [palmitate], the X-ray crystallography entry in test [3] is on record as “Since the predominant FA found in E. coli lipids is palmitate, we fitted this”.
